In patent publication US9833486B2, “Compositions comprising selenium and use of same for the treatment and prevention of disease or conditions associated with mitochondrial dysfunction” (ALLTECH, INC., priority 2013, dated 2017):
Several values for one entry are separate records, joined by “and”; a condition that tells them apart may be missing. Equal values may be shown once. Entries after “also recorded” stand apart in the source; their conditions may differ. *1 amine or outer side, *2 acyl side, *3 side chain or, on linkers, in order; H or OH if unused. Where a SMILES comes first, the peptide text is derived from it. Bridges are numbered along the chain shown (N, C = ends). Roman numbers before positions name the chains, in order. [ ]: non-standard residue; d: D form. γGlu = O=C(O)[C@H](CCC(=O)[*:2])N[*:1]; Sec = N[C@@H](C[SeH])C(=O)O

What was measured:
[1] = Oxygen radical absorbance capacity (ORAC) antioxidant assay; details: Trolox Equivalents; singly or in combination
Description: Briefly, samples of selenium containing compounds (e.g., identified in Example 1) were analyzed using the Trolox assay kit, according to the manufacturer's instructions. Compounds were tested singly or in combination (at concentrations ranging from 0.05 to 5 μM) to examine for potential synergies, antagonisms or purely additive effects.

[2] = test system: rat brain purified mitochondria; test: Mitochondrial bioenergetics, oxygen consumption rates (Seahorse flux analyzer); type: biochemical; set-up: key to Trend of effect on mitochondrial bioenergetics: 1: Positive Trend; 2: Positive/Negative trend; 3: Negative Trend; 4: No Change; details: for Effect on mitochondrial activity / bioenergetics profile (in words) / STATE III % change / STATE V % change / STATE Vsucc % change: Seahorse; for Effect on mitochondrial activity / bioenergetics profile (in words) / STATE V (State VFCCP, complex I dependent maximum respiratory capacity) / STATE Vsucc (complex II dependent maximum respiratory capacity) / STATE III (OCR, ATP synthesis) / STATE III % change / STATE V % change / STATE Vsucc % change: 500 ppb; for Trend of effect on mitochondrial bioenergetics: Table 7; for STATE V (State VFCCP, complex I dependent maximum respiratory capacity) / STATE Vsucc (complex II dependent maximum respiratory capacity) / STATE III (OCR, ATP synthesis): rat brain purified mitochondria 5 μg/well; for STATE V (State VFCCP, complex I dependent maximum respiratory capacity): CTRL 182.1; for STATE Vsucc (complex II dependent maximum respiratory capacity): CTRL 350.1; for STATE III (OCR, ATP synthesis): CTRL 432.6; for STATE III % change / STATE V % change / STATE Vsucc % change: vs control
Description: Mitochondria isolated from rat brain were chosen for this purpose for a number of reasons, including a) the ease with which mitochondria can be isolated from soft tissue, such as brain and b) the fact that brain tissue has a high demand for glucose and oxygen.
Experiments were conducted as follows: a variety of concentrations of selenium containing compounds were tested ranging from low (50 ppb), mid (500 ppb) and high (1 ppm). […] Adult rat brain ficoll purified mitochondria were isolated and incubated with the individual selenium containing compounds for 30 minutes at 37 C prior to being loaded into a Seahorse Biosciences flux analyzer in triplicate. OCR (Oxygen Consumption Rates) parameters were measured in three respiratory states including ATP synthesis (State III), Complex I dependent (NADH-driven) Maximum Respiratory Capacity (State VFCCP) and Complex II (FADH-driven) dependent Maximum Respiratory Capacity (State Vsucc). Sea Horse assay was performed as described (See, e.g., Sauerbeck et al., J Neurosci Methods. 2011 May 15; 198(1): 36-43; Seahorse XF, Seahorse Bioscience Inc).

[3] = test system: Complex IV; test: Complex IV enzyme activity in isolated cortical mitochondria; type: biochemical, rat; details: 0, 50, 500, 1000 PPB
[4] = test system: pyruvate dehydrogenase complex (PDHC); test: PDHC enzyme activity in isolated cortical mitochondria; type: biochemical, rat
Description: (§1) In order to measure pyruvate dehydrogenase complex (PDHC) activity as well as mitochondrial Complex I activity, cortical mitochondria were isolated from adult SD rats using a ficoll gradient method. Methylselenoadenosine was tested at four concentration ranges (0, 50, 500 and 1000 PPB). All assays were done in triplicate with co-incubation of the individual compounds with mitochondria (60 μg mitochondrial protein/well) in 100 μl assay system using standard techniques in a 96-well fluorescence plate reader.

[5] = test system: mitochondrial Complex I; test: Mitochondrial Complex I activity in isolated cortical mitochondria; type: biochemical, rat; details: 0, 50, 500, 1000 PPB
Description: as §1

[6] = test system: mitochondria; test: Mitochondrial respiration by oxytherm (Clark-type electrode); type: biochemical, rat; details: 60 μg mitochondrial protein, 500 ppb, 30 minutes
Description: The bioactivities of selenium containing peptide LVSe-MR (C22H44N7O5Se) (#6) and methylselenoadenosine (C11H15N5O3Se) (#9) were analyzed utilizing oxytherm (Clark-type electrode) (See, e.g., Chance and Williams, J Biol Chem, 1955, 217, 383-393; Sullivan et al., J. Bioenerg. Biomembr. 36, 353-356.). Oxytherm analysis allows the determination of oxygen uptake or evolution measurements across a broad range of applications including mitochondrial and cellular respiration. For this experiment, 60 μg mitochondrial protein was co-incubated with either compound LVSe-MR (C22H44N7O5Se) or methylselenoadenosine (500 ppb) or their corresponding equivalent concentrations of respective controls (LVMR and methylthioadenosine, respectively) for 30 minutes prior to injection into the oxytherm chamber. Mitochondrial activity (measured and presented as the rate of mitochondrial respiration observed as % change in nmols O2/min/mg of mitochondrial protein) was measured in the presence of each compound.

[7] = test system: mice; test: Expression of oxidative phosphorylation (OXPHOS) molecules in liver; type: in vivo, mouse
Description: Utilizing the animal model described in Example 2, experiments were conducted to analyze the expression of molecules that regulate oxidative phosphorylation (OXPHOS) in the liver of subjects administered a composition comprising selenium.

Compound: C[Se]CC[C@H](N)C(=O)O [#4, L-Selenomethionine]
- TE Value [1]: 1.228 TE

Compound: Glutamylselenocysteine dimer [#10]
- Effect on mitochondrial activity / bioenergetics profile (in words) [2]: negative effect
- Trend of effect on mitochondrial bioenergetics [2]: #10^3
- decreased ATP synthesis (State III) ([2]; decrease vs control): ~19%
- STATE V (State VFCCP, complex I dependent maximum respiratory capacity) [2]: 112.7
- STATE Vsucc (complex II dependent maximum respiratory capacity) [2]: 254.4
- STATE III (OCR, ATP synthesis) [2]: 352.1
- STATE III % change [2]: −18.7%
- STATE V % change [2]: −38.1%
- STATE Vsucc % change [2]: −27.3%

Compound: N[C@@H](CCC(=O)N[C@@H](C[Se][Se]C[C@H](NC(=O)CC[C@H](N)C(=O)O)C(=O)NCC(=O)O)C(=O)NCC(=O)O)C(=O)O [#8, Selenoglutathione dimer] (I: γGlu-[Sec]-Gly-OH / II: γGlu-[Sec]-Gly-OH; diselenide I:1-II:1)
- Trend of effect on mitochondrial bioenergetics [2]: #8^4
- STATE V (State VFCCP, complex I dependent maximum respiratory capacity) [2]: 192.3
- STATE Vsucc (complex II dependent maximum respiratory capacity) [2]: 371.0
- STATE III (OCR, ATP synthesis) [2]: 424.0
- STATE III % change [2]: −2.1%
- STATE V % change [2]: 5.7%
- STATE Vsucc % change [2]: 6.0%

Compound: N[C@@H](CCC(=O)O)C(=O)N[C@@H](CS)C(=O)O [#30, Glutamylcysteine, reference compound] (H-Glu-Cys-OH)
- Trend of effect on mitochondrial bioenergetics [2]: #30^2
- STATE V (State VFCCP, complex I dependent maximum respiratory capacity) [2]: 153.8
- STATE Vsucc (complex II dependent maximum respiratory capacity) [2]: 305.4
- STATE III (OCR, ATP synthesis) [2]: 423.2
- STATE III % change [2]: −2.3%
- STATE V % change [2]: −15.5%
- STATE Vsucc % change [2]: −12.7%

Compound: Methylselenoadenosine [#9]
- Complex IV enzyme activity (in words) [3]: No changes
- PDHC activity (in words) ([4]; 0, 50, 500, 1000 PPB): increased
- enhanced PDHC enzyme activity ([4]; 0-1000 PPB, depending upon the concentration, p<0.05 at 1000 PPB): 30-57%
- Effect on mitochondrial activity / bioenergetics profile (in words) [2]: positive increases in all three states of respiration; also recorded: remarkably increase mitochondrial bioenergetics profiles
- Trend of effect on mitochondrial bioenergetics [2]: #9^1
- STATE V (State VFCCP, complex I dependent maximum respiratory capacity) [2]: 210.3^1
- STATE Vsucc (complex II dependent maximum respiratory capacity) [2]: 437.1^1
- STATE III (OCR, ATP synthesis) [2]: 507.8^1
- STATE III % change [2]: 17.3% and 17.3^1%
- STATE V % change [2]: 15.6% and 15.6^1%
- STATE Vsucc % change [2]: 25% and 24.9^1%
- Complex I activity (in words) [5]: increased
- TE Value [1]: 0.722 TE
- State III increase compared to control [6]: 29.9%
- State VFCCP increase compared to control [6]: 17.3%
- State Vsucc increase compared to control [6]: 15.3%

Compound: C[Se]CC[C@H](N)C(=O)O [selenomethionine]
- expression of ATP synthase [7]: significant increase
- expression of ATPase inhibitory factor 1 [7]: significantly reduced
- expression of ATPase, H+ transporting lysosomal, V1 subunit H [7]: significantly reduced
- expression of ATPase, H+ transporting, V1 subunit A [7]: significantly reduced
- expression of cytochrome c oxidase, subunit Va [7]: significant increase
- regulation of liver specific mitochondrial activity, compared with selenium enriched yeast [7]: significantly less effective
